One experiment concerns RAW264.7. As to the kind of experiment: Antiinflammatory activity against mouse RAW264.7 cells assessed as inhibition of LPS-induced nitrite accumulation at 10 uM preincubated for 30 mins followed by LPS-stimulation and measured after 24 hrs by Griess reagent based assay relative to control. Set-up: scale not given: the % may be the effect or the level left. Type of experiment: functional. The note with it: time 24.5 hrs.

For experiment [1], the system named is Neutrophil. As to the kind of experiment: Antiinflammatory activity in human neutrophils assessed as inhibition of elastase release. It counts as functional, cell-based.
For experiment [2], the system named is Neutrophil. Kind of experiment: Antiinflammatory activity in human neutrophils assessed as inhibition of fMLF/cytochalasin B-induced superoxide anion generation. Type of experiment: functional, cell-based.
Another experiment concerns the target T1, Sulfotransferase 1E1 (Homo sapiens, UniProt P49888).
T1 sequence (P49888 whole entry): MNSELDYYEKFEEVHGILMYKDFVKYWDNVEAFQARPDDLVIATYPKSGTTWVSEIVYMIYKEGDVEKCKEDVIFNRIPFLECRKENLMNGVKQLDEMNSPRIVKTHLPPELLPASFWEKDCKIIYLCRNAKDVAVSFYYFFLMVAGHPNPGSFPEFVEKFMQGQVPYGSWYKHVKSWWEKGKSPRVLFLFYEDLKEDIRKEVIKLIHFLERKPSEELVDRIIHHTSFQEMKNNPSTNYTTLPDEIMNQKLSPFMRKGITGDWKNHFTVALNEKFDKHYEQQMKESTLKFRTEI
As to the kind of experiment: Inhibition of estrogen sulfotransferase in human liver cytosol incubated for 30 mins in presence of [3H]-estradiol and adenosine -3'-phosphate 5'-phosphosulfate by liquid scintillation counting method. It counts as subcellular.

The subject of experiment [3] is Neutrophil. Kind of experiment: Antiinflammatory activity in human neutrophils assessed as inhibition of fMLF/cytochalasin B-induced superoxide anion generation at 10 uM relative to control. Type of experiment: functional. More on the design: scale not given: the % may be the effect or the level left.
Experiment [4] has as its system Neutrophil. As to the kind of experiment: Antiinflammatory activity in human neutrophils assessed as inhibition of elastase release at 10 uM relative to control. Set-up: scale not given: the % may be the effect or the level left. It counts as functional.
A further experiment concerns the target T2, Acetylcholinesterase (Rattus norvegicus, UniProt P37136).
T2 sequence (P37136 whole entry): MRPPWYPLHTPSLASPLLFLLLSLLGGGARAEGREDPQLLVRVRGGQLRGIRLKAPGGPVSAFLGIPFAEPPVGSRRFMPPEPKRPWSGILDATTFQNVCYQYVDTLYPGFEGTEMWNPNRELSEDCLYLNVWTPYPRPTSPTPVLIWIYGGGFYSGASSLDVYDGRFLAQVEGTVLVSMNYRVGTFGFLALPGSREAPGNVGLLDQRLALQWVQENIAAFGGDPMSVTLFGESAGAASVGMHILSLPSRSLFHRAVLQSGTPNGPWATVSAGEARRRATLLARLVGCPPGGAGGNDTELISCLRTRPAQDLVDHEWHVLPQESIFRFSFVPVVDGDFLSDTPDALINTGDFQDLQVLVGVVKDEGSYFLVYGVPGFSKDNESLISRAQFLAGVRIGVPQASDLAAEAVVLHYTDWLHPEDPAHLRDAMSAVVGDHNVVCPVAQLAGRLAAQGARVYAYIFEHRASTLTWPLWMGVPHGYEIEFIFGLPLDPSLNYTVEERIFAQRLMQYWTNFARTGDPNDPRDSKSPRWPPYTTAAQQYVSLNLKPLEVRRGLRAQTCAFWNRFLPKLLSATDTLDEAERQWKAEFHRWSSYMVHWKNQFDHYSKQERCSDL
As to the kind of experiment: Inhibition of Sprague-Dawley rat acetylcholinesterase using acetylthiocholine iodide as substrate measured at 30 secs for 5 mins by Ellman's method.

Experiment [5] can be described thus: Antagonist activity at PAF receptor in rabbit platelet membrane assessed as inhibition of [3H]-PAF binding to PAF receptor. It counts as cell membranes, Oryctolagus cuniculus, Cell membrane.
Experiment [6] in a line: Metal chelating activity of the compound assessed as Fe2+-compound complex formation at 0.250 mg/ml incubated for 10 mins in presence of ferrozine solution relative to control. The note with it: dose 0.25 mg/ml.
The nature of experiment [7]: Metal chelating activity of the compound assessed as Fe2+-compound complex formation at 0.500 mg/ml incubated for 10 mins in presence of ferrozine solution relative to control. The conditions noted are these: dose 0.5 mg/ml.
The nature of experiment [8]: Metal chelating activity of the compound assessed as Fe2+-compound complex formation at 1 mg/ml incubated for 10 mins in presence of ferrozine solution relative to control.
Another experiment is filed under the species Mus musculus. As to the kind of experiment: cells. The note with it: Swiss-Taconi.
The target of experiment [9] is 11-beta-hydroxysteroid dehydrogenase 1 (Homo sapiens) (UniProt P28845). As to the kind of experiment: Inhibition of human 11beta-HSD1 expressed in HEK-293 cells assessed as residual activity at […] using radiolabeled cortisone as substrate by scintillation counting. Type of experiment: cell-based. The note with it: HEK293.

SMILES strings stand for the structures.

11-beta-hydroxysteroid dehydrogenase 1 (Homo sapiens), sequence (P28845 whole entry, looked up): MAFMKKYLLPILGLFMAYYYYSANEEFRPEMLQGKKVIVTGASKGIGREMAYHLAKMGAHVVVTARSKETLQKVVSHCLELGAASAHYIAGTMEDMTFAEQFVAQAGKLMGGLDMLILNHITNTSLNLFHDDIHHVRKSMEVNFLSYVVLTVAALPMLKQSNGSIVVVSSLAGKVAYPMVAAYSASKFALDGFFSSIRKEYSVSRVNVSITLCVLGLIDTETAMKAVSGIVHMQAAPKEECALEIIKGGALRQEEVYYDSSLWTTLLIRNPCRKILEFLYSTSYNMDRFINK
Description for Mus musculus: Antiinflammatory activity in Swiss-Taconi mouse assessed as reduction in TPA-induced ear edema

With `CCC1=C(Cc2ccoc2)C(=O)[C@@]2(C)CCCC(C)(C)[C@@H]2C1`, the Activity with RAW264.7 is on record as 35.53%.

One may read the IC50 as the concentration needed to halve the response being measured. `CC1=C(CCc2ccoc2)[C@@]2(C)CCCC(C)(C)[C@@H]2CC1=O`: the IC50 was determined as 5.42 µM in the experiment on Neutrophil [1], 8.48 µM in the experiment on Neutrophil [2], 19.8 µM on Sulfotransferase 1E1 and 38.5 µM at Acetylcholinesterase. Moreover, the figures for the Activity in the experiment with Neutrophil [3] and in the experiment on Neutrophil [4] were 58.43% and 70.06%, respectively.

With `CC1=C(CCC2=CC(=O)OC2O)[C@@]2(C)CCCC(C)(C)[C@@H]2CC1=O` (some centres undefined), the Activity in the experiment on RAW264.7 is reported as 84.1%.

As for `C[C@@H]1C(=O)C[C@H]2C(C)(C)CCC[C@]2(C)[C@@]12CC[C@]1(C=COC1)O2`, the IC50 in experiment [5] came to 4 µM.

Consider `C[C@@H]1C(=O)C[C@H]2C(C)(C)CCC[C@]2(C)[C@@]1(O)CCc1ccoc1`, for which the Activity in [6] amounted to 96%; in experiment [7], 97%; in [8] it was 97.3%; in experiment [9], 20%. In addition, the half-maximal inhibitory concentration (IC50) in the experiment filed under Mus musculus was 1.05 µM.

(Values after ChEMBL document CHEMBL4699466, “Isolation, reactivity, pharmacological activities and total synthesis of hispanolone and structurally related diterpenes from Labiatae plants” (Bioorg Med Chem Lett, 2020).)
